Test results as given in patent US20230384334A1, “METHOD FOR CALCULATING DRINKING TIME” (Shanxi Medical University, priority 2022, published 2023).
Like-named read-outs stand apart in the source and are kept apart here.

Conditions: in vivo
Protocol: Approved by the Medical Ethics Committee of Shanxi Medical University (2018LL349), a total of 26 adults including 14 men and 12 women are recruited by the team to participate in the study.
All the blood samples were stored at −20 DEG C. until the end of the analysis.
1 mL of blood and 1 mL of tert-butanol (IS, 87 mg/mL) were added to a headspace vial, diluted with 3 mL of ultrapure water, mixed in a sealed condition, and then analyzed by the headspace gas chromatography.
Metabolites EtG and EtS in blood samples were measured by liquid chromatography-tandem quadrupole mass spectrometry (LC-MS/MS) with EtG-D5 and EtS-D5 as internal standards. […] Then 800 μL of 80% acetonitrile in methanol was added, and the mixture is precipitated at 0 DEG C. for 10min. After that, centrifugation was performed at 13000 rpm for 5 min, supernatant was taken out, and dried, by blowing, with nitrogen at 35 DEG C., and then re-dissolved with 400 μL of 5% acetonitrile in water and centrifuged again at 13000 rpm for 5 min.
Chromatograph separation was performed via an LC-20 A system. Conditions of the chromatograph were as follows:
chromatographic column: Inertsil ODS-3 column (2.1 mm×100 mm, 3 μm; Shimadzu, Japan) , and column temperature: 35 DEG C.
Targeted substances were tested by a tandom mass spectrometer (TRAP4,000, Sciex, AB). The specific conditions were as follows:
Ion source: electron spray ionization (ESI); voltage of ion spray: −4000 V, and temperature: 500 DEG C.; curtain gas, nebulizer (Gas 1), and heating auxiliary gas (Gas 2): 40 psi, 50 psi, and 35 psi respectively.
Scanning mode: anions+multiple reaction monitoring (MRM).
The pharmacokinetic parameters were calculated by a non-compartmental model using a DAS 3.0 software. All data was summarized using descriptive statistics. […] All statistical analyses were performed using version 13.0 of an IBM SPSS® software (SPSS Inc., Chicago, IL, USA).

| Compound | AUC (0-t), area under the curve (human, po) | Cmax, peak concentration (human, po) | Tmax, time to peak (human, po) | t1/2z, half-life period (human, po) | LOD (h) in human blood (po) | Cmax, peak concentration (human, 0.72 g/kg) | Clz/F, clearance rate (human, po) | Vz/F, apparent volume of distribution (human, po) | Detection window time (maximum observed value) in blood (po) |
| --- | --- | --- | --- | --- | --- | --- | --- | --- | --- |
| CCO[C@@H]1O[C@H](C(=O)O)[C@@H](O)[C@H](O)[C@H]1O [EtG, Ethyl glucuronide] | 1.99 ± 0.78 mg·h/L | 0.31 ± 0.11 mg/L | 4.12 ± 1.07 h | 2.56 ± 0.89 h | 22.15 ± 4.42 h | – | – | – | – |
| CCOS(=O)(=O)O [EtS, Ethyl sulphate] | 1.04 ± 0.34 mg·h/L | 0.17 ± 0.04 mg/L | – | 2.04 ± 0.76 h | 16.92 ± 6.23 h | 0.17 mg/L | – | – | – |
| CCO [alcohol, Alcohol] | 1,715.23 ± 626.72 mg/L* | – | 2.02 ± 0.54 h | – | 5.81 ± 1.74 h | – | 0.49 ± 0.33 L/h | 0.69 ± 0.49 L/kg | 3 to 8 h |
